Values after ≈ are worked out from the molar mass of the structure shown.
Columns and labels:
Staphylococcus aureus [1] = assay: Antibacterial activity against Staphylococcus aureus ATCC29213 assessed as inhibition of bacterial growth incubated for 16 to 20 hrs by CLSI based broth liquid microdilution method; type: functional; conditions: time 16-20 hrs
Enterococcus faecalis = assay: Antibacterial activity against linezolid-resistant Enterococcus faecalis assessed as inhibition of bacterial growth incubated for 16 to 20 hrs by CLSI based broth liquid microdilution method; type: functional; conditions: time 16-20 hrs
Staphylococcus aureus [2] = assay: Antibacterial activity against methicillin-sensitive Staphylococcus aureus assessed as inhibition of bacterial growth incubated for 16 to 20 hrs by CLSI based broth liquid microdilution method; type: functional; conditions: time 16-20 hrs
Staphylococcus aureus [3] = assay: Antibacterial activity against linezolid-resistant Staphylococcus aureus assessed as inhibition of bacterial growth incubated for 16 to 20 hrs by CLSI based broth liquid microdilution method; type: functional; conditions: time 16-20 hrs
Staphylococcus aureus [4] = assay: Antibacterial activity against methicillin-resistant Staphylococcus aureus assessed as inhibition of bacterial growth incubated for 16 to 20 hrs by CLSI based broth liquid microdilution method; type: functional; conditions: time 16-20 hrs
[5] = Solubility of compound at pH 2; type: physicochemical; conditions: buffer
[6] = Clearance in Sprague-Dawley rat at 1 mg/kg, iv measured upto 24 hrs by LC-MS analysis; type: ADME, organism-based; conditions: in vivo
[7] = Aqueous solubility of compound at pH 2 by LC-MS/MS analysis; type: physicochemical; conditions: buffer
[8] = Solubility of compound at pH 7.4; type: physicochemical; conditions: buffer
[9] = Tmax in Sprague-Dawley rat at 10 mg/kg, IG measured upto 24 hrs by LC-MS analysis; type: ADME, organism-based; conditions: in vivo, po
[10] = Cmax in Sprague-Dawley rat at 10 mg/kg, IG measured upto 24 hrs by LC-MS analysis; type: ADME, organism-based; conditions: in vivo, po
[11] = Elimination half life in Sprague-Dawley rat at 10 mg/kg, IG measured upto 24 hrs by LC-MS analysis; type: ADME, organism-based; conditions: in vivo, po, read-out: beta t1/2 (converted)
[12] = AUC (0 to t) in Sprague-Dawley rat at 10 mg/kg, IG measured upto 24 hrs by LC-MS analysis; type: ADME, organism-based; conditions: in vivo, po
[13] = Elimination half life in Sprague-Dawley rat at 1 mg/kg, iv measured upto 24 hrs by LC-MS analysis; type: ADME, organism-based; conditions: in vivo, read-out: beta t1/2 (converted)
[14] = Efflux ratio of apparent permeability across […] side in human Caco-2 cells; type: ADME, cell-based
[15] = Aqueous solubility of compound at pH 7.4 by LC-MS/MS analysis; type: physicochemical; conditions: buffer
[16] = Apparent permeability across apical to basolateral side in human Caco-2 cells; type: ADME, cell-based
[17] = Bioavailability in Sprague-Dawley rat at 10 mg/kg, IG measured upto 24 hrs by LC-MS analysis; type: ADME, organism-based; conditions: in vivo, po
[18] = AUC (0 to t) in Sprague-Dawley rat at 1 mg/kg, iv measured upto 24 hrs by LC-MS analysis; type: ADME, organism-based; conditions: in vivo
[19] = Apparent volume of distribution in Sprague-Dawley rat at 1 mg/kg, iv measured upto 24 hrs by LC-MS analysis; type: ADME, organism-based; conditions: in vivo, read-out: Vz

Row | Structure (SMILES) | MIC (Staphylococcus aureus [1]) | MIC (Enterococcus faecalis) | MIC (Staphylococcus aureus [2]) | MIC (Staphylococcus aureus [3]) | MIC (Staphylococcus aureus [4]) | other results
1 | COC[C@H]1CN(c2ccc(-c3ccc(/C=N/N4CCCCC4)nc3)c(F)c2)C(=O)O1 | > 16 µg/mL | > 16 µg/mL | > 16 µg/mL | – | – | –
2 | N=C(N)N/N=C/c1ccc(-c2ccc(N3C[C@H](CO)OC3=O)cc2F)cn1 | 1 µg/mL (≈ 2.69 µM) | 2 µg/mL (≈ 5.37 µM) | 0.5 µg/mL (≈ 1.34 µM) | 1 µg/mL (≈ 2.69 µM) | 1 µg/mL (≈ 2.69 µM) | –
3 | O=C1O[C@@H](CO)CN1c1ccc(-c2ccc(/C=N/N3CCSCC3)nc2)c(F)c1 | 2 µg/mL (≈ 4.8 µM) | 8 µg/mL (≈ 19.2 µM) | 1 µg/mL (≈ 2.4 µM) | 2 µg/mL (≈ 4.8 µM) | 1 µg/mL (≈ 2.4 µM) | –
4 | Cc1cccc(N/N=C/c2ccc(-c3ccc(N4C[C@H](CO)OC4=O)cc3F)cn2)n1 | 0.5 µg/mL (≈ 1.19 µM) | 1 µg/mL (≈ 2.37 µM) | 0.25 µg/mL (≈ 0.593 µM) | 0.5 µg/mL (≈ 1.19 µM) | 0.5 µg/mL (≈ 1.19 µM) | –
5 | CS(=O)(=O)N1CCN(/N=C/c2ccc(-c3ccc(N4C[C@H](CO)OC4=O)cc3F)cn2)CC1 | 0.25 µg/mL (≈ 0.524 µM) | 1 µg/mL (≈ 2.09 µM) | 0.125 µg/mL (≈ 0.262 µM) | 0.125 µg/mL (≈ 0.262 µM) | 0.25 µg/mL (≈ 0.524 µM) | –
6 | O=C1O[C@@H](CNS(=O)(=O)C2CC2)CN1c1ccc(-c2ccc(/C=N/N3CCCCC3)nc2)c(F)c1 | 0.25 µg/mL (≈ 0.498 µM) | > 16 µg/mL | 0.25 µg/mL (≈ 0.498 µM) | > 16 µg/mL | 0.25 µg/mL (≈ 0.498 µM) | –
7 | NC[C@H]1CN(c2ccc(-c3ccc(/C=N/N4CCCCC4)nc3)c(F)c2)C(=O)O1 | 8 µg/mL (≈ 20.1 µM) | 32 µg/mL (≈ 80.5 µM) | 8 µg/mL (≈ 20.1 µM) | 32 µg/mL (≈ 80.5 µM) | 16 µg/mL (≈ 40.3 µM) | –
8 | O=C1O[C@@H](CO)CN1c1ccc(-c2ccc(/C=N/Nc3ccncn3)nc2)c(F)c1 | 1 µg/mL (≈ 2.45 µM) | 64 µg/mL (≈ 157 µM) | 1 µg/mL (≈ 2.45 µM) | 1 µg/mL (≈ 2.45 µM) | 1 µg/mL (≈ 2.45 µM) | –
9 | CCS(=O)(=O)NC[C@H]1CN(c2ccc(-c3ccc(/C=N/N4CCCCC4)nc3)c(F)c2)C(=O)O1 | 1 µg/mL (≈ 2.04 µM) | 8 µg/mL (≈ 16.3 µM) | 1 µg/mL (≈ 2.04 µM) | > 16 µg/mL | 1 µg/mL (≈ 2.04 µM) | –
10 | CC(C)(C)C(=O)NC[C@H]1CN(c2ccc(-c3ccc(/C=N/N4CCCCC4)nc3)c(F)c2)C(=O)O1 | 4 µg/mL (≈ 8.31 µM) | > 16 µg/mL | 4 µg/mL (≈ 8.31 µM) | > 16 µg/mL | 4 µg/mL (≈ 8.31 µM) | –
11 | CN1CCN(/N=C/c2ccc(-c3ccc(N4C[C@H](CO)OC4=O)cc3F)cn2)CC1 | 0.125 µg/mL (≈ 0.302 µM) | 0.5 µg/mL (≈ 1.21 µM) | 0.125 µg/mL (≈ 0.302 µM) | 0.125 µg/mL (≈ 0.302 µM) | 0.125 µg/mL (≈ 0.302 µM) | –
12 | O=C1O[C@@H](CO)CN1c1ccc(-c2ccc(/C=N/Nc3ccc(Cl)cc3)nc2)c(F)c1 | 0.5 µg/mL (≈ 1.13 µM) | 32 µg/mL (≈ 72.6 µM) | 0.25 µg/mL (≈ 0.567 µM) | 0.5 µg/mL (≈ 1.13 µM) | 0.5 µg/mL (≈ 1.13 µM) | –
13 | O=C1O[C@@H](CO)CN1c1ccc(-c2ccc(/C=N/Nc3ccc(Cl)nn3)nc2)c(F)c1 | 0.5 µg/mL (≈ 1.13 µM) | 2 µg/mL (≈ 4.52 µM) | 0.5 µg/mL (≈ 1.13 µM) | 1 µg/mL (≈ 2.26 µM) | 0.5 µg/mL (≈ 1.13 µM) | –
14 | Cc1cc(Br)cc(C(=O)N2CCN(/N=C/c3ccc(-c4ccc(N5C[C@H](CO)OC5=O)cc4F)cn3)CC2)c1 | 0.25 µg/mL (≈ 0.419 µM) | 4 µg/mL (≈ 6.71 µM) | 0.125 µg/mL (≈ 0.21 µM) | 0.25 µg/mL (≈ 0.419 µM) | 0.25 µg/mL (≈ 0.419 µM) | –
15 | CS(=O)(=O)OC[C@H]1CN(c2ccc(-c3ccc(/C=N/N4CCCCC4)nc3)c(F)c2)C(=O)O1 | 0.015 µg/mL (≈ 0.0315 µM) | 1 µg/mL (≈ 2.1 µM) | 0.008 µg/mL (≈ 0.0168 µM) | > 16 µg/mL | 0.008 µg/mL (≈ 0.0168 µM) | –
16 | O=C1O[C@@H](CF)CN1c1ccc(-c2ccc(/C=N/N3CCCCC3)nc2)c(F)c1 | 0.25 µg/mL (≈ 0.624 µM) | > 16 µg/mL | 0.25 µg/mL (≈ 0.624 µM) | 0.5 µg/mL (≈ 1.25 µM) | 0.5 µg/mL (≈ 1.25 µM) | –
17 | O=C1O[C@@H](CO)CN1c1ccc(-c2ccc(/C=N/Nc3ccc(Cl)cn3)nc2)c(F)c1 | 0.5 µg/mL (≈ 1.13 µM) | 8 µg/mL (≈ 18.1 µM) | 0.5 µg/mL (≈ 1.13 µM) | 0.5 µg/mL (≈ 1.13 µM) | 0.5 µg/mL (≈ 1.13 µM) | –
18 | CC(C)S(=O)(=O)NC[C@H]1CN(c2ccc(-c3ccc(/C=N/N4CCCCC4)nc3)c(F)c2)C(=O)O1 | 4 µg/mL (≈ 7.94 µM) | > 64 µg/mL | 2 µg/mL (≈ 3.97 µM) | > 64 µg/mL | 4 µg/mL (≈ 7.94 µM) | –
19 | NC(=S)N/N=C/c1ccc(-c2ccc(N3C[C@H](CO)OC3=O)cc2F)cn1 | 0.125 µg/mL (≈ 0.321 µM) | 1 µg/mL (≈ 2.57 µM) | 0.125 µg/mL (≈ 0.321 µM) | 0.25 µg/mL (≈ 0.642 µM) | 0.125 µg/mL (≈ 0.321 µM) | –
20 | O=C1O[C@@H](CO)CN1c1ccc(-c2ccc(/C=N/NC3=NCCN3)nc2)c(F)c1 | 0.5 µg/mL (≈ 1.26 µM) | 2 µg/mL (≈ 5.02 µM) | 0.25 µg/mL (≈ 0.628 µM) | 0.5 µg/mL (≈ 1.26 µM) | 0.5 µg/mL (≈ 1.26 µM) | –
21 | O=C1O[C@@H](CO)CN1c1ccc(-c2ccc(/C=N/Nc3ncccn3)nc2)c(F)c1 | 1 µg/mL (≈ 2.45 µM) | 4 µg/mL (≈ 9.79 µM) | 0.5 µg/mL (≈ 1.22 µM) | 1 µg/mL (≈ 2.45 µM) | 1 µg/mL (≈ 2.45 µM) | –
22 | CS(=O)(=O)NC[C@H]1CN(c2ccc(-c3ccc(/C=N/N4CCCCC4)nc3)c(F)c2)C(=O)O1 | 0.06 µg/mL (≈ 0.126 µM) | 4 µg/mL (≈ 8.41 µM) | 0.125 µg/mL (≈ 0.263 µM) | > 16 µg/mL | 0.125 µg/mL (≈ 0.263 µM) | –
23 | CC(=O)NC[C@H]1CN(c2ccc(-c3ccc(/C=N/N4CCS(=O)(=O)CC4)nc3)c(F)c2)C(=O)O1 | 0.125 µg/mL (≈ 0.255 µM) | 0.25 µg/mL (≈ 0.511 µM) | 0.125 µg/mL (≈ 0.255 µM) | 0.125 µg/mL (≈ 0.255 µM) | 0.125 µg/mL (≈ 0.255 µM) | solubility [5]: 70.4 µM (≈ 34.5 µg/mL); clearance [6]: 12.9 mL/min/kg; solubility [7]: 70.4 µM (≈ 34.5 µg/mL); solubility [8]: 2.38 µM (≈ 1.17 µg/mL); Tmax [9]: 30 min; Cmax [10]: 140 ng/mL; half-life [11]: 154 min; AUC(0-t) at 24 h [12]: 469 ng·h/mL; half-life [13]: 44.4 min; Ratio [14]: 64; solubility [15]: 38 µM (≈ 18.6 µg/mL); Papp A→B [16]: 0.27 ×10⁻⁶ cm/s; bioavailability [17]: 3.6%; AUC(0-t) at 24 h [18]: 1290 ng·h/mL; Vd [19]: 0.58 L/kg

— ChEMBL document CHEMBL5550154, “Novel biaryloxazolidinone derivatives with broad-spectrum antibacterial activity, favorable drug-like profiles and in vivo efficacy against linezolid-resistant Staphylococcusaureus” (Eur J Med Chem, 2024)
